Values of other authors, collected in patent US20120100040A1, “COMPOSITION FOR S[…]” (Bakteriefritt AS, priority 2009, published 2012).

Conditions: rat, orally

In the case of `CS(C)(=O)=O` [dimethylsulfone], the LD50 is listed as > 5000 mg/kg.
